{"source": "patent US9259443B2", "about": "“Compositions and methods for the generation of platelets and methods of use thereof” (The Children's Hospital of Philadelphia, priority 2010, dated 2016)", "key": {"NSG mice": {"tested_on": "NSG mice", "test": "Infusion of human platelets or human ex vivo-grown megakaryocytes into NSG mice", "type": "in vivo, mouse", "conditions": "for time of spike of platelets after infusion: NSG mice; for platelets per megakaryocyte: two million large cells", "protocol": "FIG. 7A provides a graph of human platelets infused into immune-suppressed NOD/SCID/[…] NSG mice over time. FIG. 7B provides a graph of the percentage of human platelets over time after infusion of fetal liver megakaryocytes into NSG mice. FIG. 7C provides a graph of human platelets over time after infusion of dimethylfasudil (diMF; 5 μM), a Rho/ROCK1 kinase inhibitor, treated human fetal liver megakaryocytes (large cells) into NSG mice. FIG. 7D provides a graph of human platelets over time after infusion of human megakaryocytes (large cell) from CD34+ bone marrow cells into NSG mice. FIG. 7E provides a graph of human platelets over time after infusion of dimethylfasudil (2 μM)-treated human CD34+ bone marrow megakaryocytes (large cell) into NSG mice.\nNSG mice (Shultz et al. (2007) Nat. Rev. Immunol., 7:118-130; Shultz et al. (2005) J. Immunol., 174:6477-89) were infused with human platelets. […] When human fetal liver (FL) megakaryocytes were infused into NSG mice, a spike of platelets was observed within 10 hours of infusion (FIG. 7B). Two million large cells infused yielded about 13 platelets per megakaryocyte.\nTo increase platelet production, dimethylfasudil (diMF), a Rho/ROCK1 kinase inhibitor, was tested for its ability to promote human FL megakaryocyte maturation. […] Further, the infusion of two million large cells yielded only about 6 platelets per megakaryocyte. Next, human-Megs (large) from bone marrow (BM) CD34+ cells were infused into NSG mice. […] Further, the infusion of two million large cells yielded about 70 platelets per megakaryocyte. When BM CD34+ Megs (large) were treated with DiMF (2 μm) and infused into NSG mice, a spike of platelets was observed immediately (FIG. 7E). Further, the infusion of two million large cells yielded only about 4 platelets per megakaryocyte."}, "hαIIb+ recipient mice": {"tested_on": "hαIIb+ recipient mice", "test": "FL cells grown with metalloproteinase (ADAM17) inhibitors, infused into hαIIb+ mice, derived platelet half-life", "type": "in vivo, mouse"}, "[1]": {"conditions": "BM CD34+ Megs (large) treated with DiMF 2 μm"}, "[2]": {"conditions": "human FL-megakaryocytes (large) treated with DiMF 5 μm"}}}
{"smiles": "Cc1cncc2cccc(S(=O)(=O)N3CCCNC[C@@H]3C)c12", "note": "[DiMF, dimethylfasudil]", "values": [{"measurement": "time of spike of platelets after infusion", "setting": "NSG mice; [1]", "result": "immediately"}, {"measurement": "platelets per megakaryocyte", "setting": "NSG mice; [1]", "result": "about 4"}, {"measurement": "time of spike of platelets after infusion", "setting": "NSG mice; [2]", "result": "within about one hour"}, {"measurement": "platelets per megakaryocyte", "setting": "NSG mice; [2]", "result": "about 6"}]}
{"smiles": "CNC(=O)[C@H](Cc1c[nH]c2ccccc12)NC(=O)[C@@H](CC(=O)NO)CC(C)C", "note": "[GM6001]", "values": [{"measurement": "change in derived platelet half-life", "setting": "hαIIb+ recipient mice; FL cells grown with GM6001 100 μM", "result": "no change"}]}
{"smiles": "CC(C)C[C@H](CC(=O)NO)C(=O)N[C@@H](Cc1ccc2ccccc2c1)C(=O)N[C@@H](C)C(=O)NCCN", "note": "[TAP-1]", "values": [{"measurement": "change in derived platelet half-life", "setting": "hαIIb+ recipient mice; FL cells grown with TAP-1 10 μM", "result": "no change"}]}
